Experimental data as given in patent US10815272B2, “CD31 peptides” (INSTITUT NATIONAL DE LA SANTE ET DE LA RECHERCHE MEDICALE …, priority 2012, dated 2020).
“And” between values parts separate entries of the source, which are not always exact repeats. Identical values can stand only once. Non-standard residues stand in square brackets, D forms with d. Residues, ends and D or L forms follow the SMILES beside them. No end group written: not given here.

Assays:
[1] = solubility comparison of peptides; format: physicochemical; settings: for maximum soubility: in the minimal solvent
Text: (§1) The solubility, activity and stability (resistance to freezing/thawing) of the P8F and P8RI peptides were compared to previously used peptides comprising the membrane-proximal sequences of CD31.

[2] = tested on: occlusive thrombus in apoE KO mice; test: acute thrombosis model, ligation of the left common carotid artery in atherosclerotic apoE KO mice; format: in vivo
Experimental: Atherosclerotic mice were treated with P8F at 2.5, 5 or 10 mg/kg/day, with aspirin as a positive control and vehicle as a negative control.
The width of the columns is proportional to the number of mice included in each group (Aspirin=5, “2.5”=7, “5”=11, “10”=7, Vehicle=8). P<0.05 for all groups vs vehicle (Veh).
The P8F sequence was also used in vivo (subcutaneous administration of different doses: 2.5, 5 and 10 mg/kg/d) in atherosclerotic mice (apoE KO, 35 weeks of age, male, chow diet) subjected to the ligation of the left common carotid artery (a model of acute thrombosis). Due to advanced age, most of the mice had already developed an atherosclerotic lesion close to the site where the ligation was performed.

[3] = stability, resistance to repeated freeze-thaw cycles (loss of activity); format: physicochemical; settings: number of cycles after which activity was diminished or abolished
Experimental: as §1
Stability was determined by subjecting the peptides to repeated freeze-thaw cycles and determining the number of cycles after which ED 50 was increased and/or biological activity abolished.

[4] = tested on: human platelet aggregation; test: platelet aggregation on collagen-coated microcapillaries under flow (whole blood perfusion); format: cell-based; settings: soluble peptide, 1500 seconds^−1, first 5 minutes
Experimental: The microcapillaries of Vena8 Fluoro+™ biochip (400 μm width×100 μm depth×20 mm length, Cellix) were coated with 2.5 mg/ml insoluble horse type I collagen overnight at 4° C. and then blocked with 0.1% HSA for 1 hour at room temperature. Human peripheral whole blood, anticoagulated with P-PACK (a direct thrombin inhibitor, non-chelating agent) was labeled with 5 μM DiOC6 for 10 minutes before perfusion with the Cellix pump at 1500 seconds^−1 through the coated capillaries. The interaction of platelets with the matrix was viewed in real time under a fluorescence microscope and was saved for off-line analysis. The surface covered by aggregated platelets was analyzed frame by frame (24 frames/s) over the first 5 minutes and expressed as coverage %.

Jurkat T cells = test: calcium mobilization test using Jurkat T cells after TCR stimulation; format: cell-based
Experimental: Jurkat T cells were preincubated with the fluo 3-AM calcium probe and stimulated by cross-linking the TCR with anti-CD3 antibodies and secondary antibody F(ab′)2 fragments.
Jurkat T cells (10×10^6/ml) were preincubated with the fluo 3-AM calcium probe and stimulated by cross-linking the TCR with anti-CD3 antibodies and secondary antibody F(ab′)2 fragments.
Activity was determined using the calcium mobilization test using Jurkat T cells, as described above.

| minimal solvent [1] | maximum soubility [1] [mg/mL] | solubility in water [1] | Compound | further results |
| --- | --- | --- | --- | --- |
| 10% Acetonitrile, and 5% acetic acid | 8.1 |  | VRVFLAPWKK [PepReg, reference compound] |  |
|  |  |  | CC(=O)Oc1ccccc1C(=O)O [aspirin, reference compound] | occlusive thrombus found ([2]; aspirin s.c. 150 mg/kg/d): No occlusive thrombus |
| water | 28.1 | soluble in water | H-RVFLAPWK-OH [P8F] | antithrombotic effect relative to reference drug ([2]; 5 mg/Kg/d s.c., vs aspirin 150 mg/kg/d s.c.): same extent of antithrombotic effect as the reference drug; occlusive thrombus found ([2]; 5 mg/ml group (so in the source)): No occlusive thrombus; number of sections showing an occlusive thrombus, out of 1000 sections/sample ([2]; P8F-treated mice vs vehicle): significantly lowered; appearance of an occlusive thrombus ([2]; s.c. 2.5, 5 and 10 mg/kg/d, all tested doses): effective in preventing the appearance of an occlusive thrombus; maximum freeze/thaw cycles [3]: 3 cycles; human platelet aggregation (surface coverage %) [4]: inhibit human platelet aggregation in a dose dependent manner; intracellular calcium mobilization (median fluorescence intensity of fluo-3AM probe) (Jurkat T cells; 60 μg/ml peptide, Jurkat cells, TCR stimulation with anti-CD3 + F(ab')2): delayed and reduced; EC50 (Jurkat T cells; Jurkat cells stimulated with antiCD3+Fab antibodies, read-out: ED 50 (minimal dose producing 50 percent of the maximum obtainable inhibition of intracellular calcium mobilization)): 25 µM |
| 10% Acetonitrile, and 5% acetic acid | 15.9 |  | SMRTSPRSSTLAVRVFLAPWKK [P22 mouse, reference compound] |  |
| water | 30.5 | soluble in water | CC(C)C[C@@H](NC(=O)[C@@H](C)NC(=O)[C@H]1CCCN1C(=O)[C@@H](Cc1c[nH]c2ccccc12)NC(=O)[C@H](N)CCCCN)C(=O)N[C@H](Cc1ccccc1)C(=O)N[C@@H](C(=O)N[C@H](CCCNC(=N)N)C(=O)O)C(C)C [P8RI, H-kwpalfvr-OH] (H-[dK][dW][dP][dA][dL][dF][dV][dR]-OH) |  |
